Test results from PubChem BioAssay (NCI).
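Results reflect a 48-hour exposure of cells in 96-well plates to compound at five concentrations. TGI is the concentration that stops growth completely.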

How the values were obtained:
Test in all cases: DTP human tumour cell line panel, 48 h
UACC-257 melanoma = test system: UACC-257 melanoma
HCT-116 colon = test system: HCT-116 colon
NCI-H522 lung = test system: NCI-H522 lung
SF-295 CNS = test system: SF-295 CNS
SW-620 colon = test system: SW-620 colon
EKVX NSCLC = test system: EKVX NSCLC
SF-539 CNS = test system: SF-539 CNS
NCI-H23 lung = test system: NCI-H23 lung
SNB-19 CNS = test system: SNB-19 CNS
HCT-15 colon = test system: HCT-15 colon
MALME-3M melanoma = test system: MALME-3M melanoma
DMS 114 small cell lung = test system: DMS 114 small cell lung
OVCAR-5 ovarian = test system: OVCAR-5 ovarian
OVCAR-4 ovarian = test system: OVCAR-4 ovarian
HCC-2998 colon = test system: HCC-2998 colon
HL-60(TB) leukemia = test system: HL-60(TB) leukemia
LXFL 529 NSCLC = test system: LXFL 529 NSCLC
NCI-H460 lung = test system: NCI-H460 lung
HOP-62 NSCLC = test system: HOP-62 NSCLC
M19-MEL melanoma = test system: M19-MEL melanoma
SK-MEL-28 melanoma = test system: SK-MEL-28 melanoma
786-0 renal = test system: 786-0 renal
RXF 393 renal = test system: RXF 393 renal
UO-31 renal = test system: UO-31 renal
M14 melanoma = test system: M14 melanoma
HT29 colon = test system: HT29 colon
COLO 205 colon = test system: COLO 205 colon
ACHN renal = test system: ACHN renal
OVCAR-3 ovarian = test system: OVCAR-3 ovarian
HOP-18 NSCLC = test system: HOP-18 NSCLC
SK-MEL-5 melanoma = test system: SK-MEL-5 melanoma
MOLT-4 leukemia = test system: MOLT-4 leukemia
LOX IMVI melanoma = test system: LOX IMVI melanoma
SNB-75 CNS = test system: SNB-75 CNS
CCRF-CEM leukemia = test system: CCRF-CEM leukemia
A549 NSCLC = test system: A549 NSCLC
OVCAR-8 ovarian = test system: OVCAR-8 ovarian
SK-OV-3 ovarian = test system: SK-OV-3 ovarian
SR leukemia = test system: SR leukemia
KM12 colon = test system: KM12 colon
RPMI-8226 leukemia = test system: RPMI-8226 leukemia
IGROV1 ovarian = test system: IGROV1 ovarian
SK-MEL-2 melanoma = test system: SK-MEL-2 melanoma
K-562 leukemia = test system: K-562 leukemia
KM20L2 colon = test system: KM20L2 colon
SF-268 CNS = test system: SF-268 CNS
SN12C renal = test system: SN12C renal
UACC-62 melanoma = test system: UACC-62 melanoma
CAKI-1 renal = test system: CAKI-1 renal
NCI-H226 lung = test system: NCI-H226 lung
SNB-78 CNS = test system: SNB-78 CNS
DLD-1 colon = test system: DLD-1 colon
TK-10 renal = test system: TK-10 renal
U251 CNS = test system: U251 CNS
XF 498 CNS = test system: XF 498 CNS
HOP-92 NSCLC = test system: HOP-92 NSCLC
RXF-631 renal = test system: RXF-631 renal
A498 renal = test system: A498 renal
DMS 273 small cell lung = test system: DMS 273 small cell lung

## COc1ccccc1N=C(N)N/N=C/c1c[nH]c2ccccc12
UACC-257 melanoma
  TGI: 11.7 µM
HCT-116 colon
  TGI: 19.6 µM
NCI-H522 lung
  TGI: 19.8 µM
SF-295 CNS
  TGI: 21.3 µM
SW-620 colon
  TGI: 10.4 µM
EKVX NSCLC
  TGI: 23.2 µM
SF-539 CNS
  TGI: 26.4 µM
NCI-H23 lung
  TGI: 19.2 µM
SNB-19 CNS
  TGI: 28.6 µM
HCT-15 colon
  TGI: 15.7 µM
MALME-3M melanoma
  TGI: 8.19 µM
DMS 114 small cell lung
  TGI: 15.5 µM
OVCAR-5 ovarian
  TGI: 26.9 µM
OVCAR-4 ovarian
  TGI: 31.3 µM
HCC-2998 colon
  TGI: 6.27 µM
HL-60(TB) leukemia
  TGI: 33.3 µM
LXFL 529 NSCLC
  TGI: 13.1 µM
NCI-H460 lung
  TGI: 22.8 µM
HOP-62 NSCLC
  TGI: 30.2 µM
M19-MEL melanoma
  TGI: 24.7 µM
SK-MEL-28 melanoma
  TGI: 16.3 µM
786-0 renal
  TGI: 26 µM
RXF 393 renal
  TGI: 27.3 µM
UO-31 renal
  TGI: 27.1 µM
M14 melanoma
  TGI: 10.5 µM
HT29 colon
  TGI: 14.9 µM
COLO 205 colon
  TGI: 3.32 µM
ACHN renal
  TGI: 22 µM
OVCAR-3 ovarian
  TGI: 25.7 µM
HOP-18 NSCLC
  TGI: 34 µM
SK-MEL-5 melanoma
  TGI: 8.91 µM
MOLT-4 leukemia
  TGI: 23.4 µM
LOX IMVI melanoma
  TGI: 22.6 µM
SNB-75 CNS
  TGI: 25.4 µM
CCRF-CEM leukemia
  TGI: 31.2 µM
A549 NSCLC
  TGI: 26.6 µM
OVCAR-8 ovarian
  TGI: 28.2 µM
SK-OV-3 ovarian
  TGI: 31.7 µM
SR leukemia
  TGI: 26.9 µM
KM12 colon
  TGI: 29.6 µM
RPMI-8226 leukemia
  TGI: 32.1 µM
IGROV1 ovarian
  TGI: 28.9 µM
SK-MEL-2 melanoma
  TGI: 19.2 µM
K-562 leukemia
  TGI: 11.6 µM
KM20L2 colon
  TGI: 26.1 µM
SF-268 CNS
  TGI: 29.1 µM
SN12C renal
  TGI: 22.7 µM
UACC-62 melanoma
  TGI: 27 µM
CAKI-1 renal
  TGI: 26.7 µM
NCI-H226 lung
  TGI: 28.5 µM
SNB-78 CNS
  TGI: 25.1 µM
DLD-1 colon
  TGI: 31.7 µM
TK-10 renal
  TGI: 30.9 µM
U251 CNS
  TGI: 24.2 µM
XF 498 CNS
  TGI: 16.9 µM

## O=C(Nc1cccs1)c1c(O)[nH]c(=S)[nH]c1=O
UACC-257 melanoma
  TGI: > 100 µM
NCI-H522 lung
  TGI: > 100 µM
SF-295 CNS
  TGI: > 100 µM
SW-620 colon
  TGI: > 100 µM
SF-539 CNS
  TGI: > 100 µM
NCI-H23 lung
  TGI: > 100 µM
SNB-19 CNS
  TGI: > 100 µM
HCT-15 colon
  TGI: > 100 µM
DMS 114 small cell lung
  TGI: > 100 µM
OVCAR-5 ovarian
  TGI: > 100 µM
OVCAR-4 ovarian
  TGI: > 100 µM
NCI-H460 lung
  TGI: > 100 µM
HOP-62 NSCLC
  TGI: > 100 µM
SK-MEL-28 melanoma
  TGI: > 100 µM
786-0 renal
  TGI: > 100 µM
UO-31 renal
  TGI: > 100 µM
M14 melanoma
  TGI: > 100 µM
COLO 205 colon
  TGI: > 100 µM
ACHN renal
  TGI: > 100 µM
OVCAR-3 ovarian
  TGI: > 100 µM
HOP-18 NSCLC
  TGI: > 100 µM
HOP-92 NSCLC
  TGI: > 100 µM
SK-MEL-5 melanoma
  TGI: > 100 µM
MOLT-4 leukemia
  TGI: > 100 µM
LOX IMVI melanoma
  TGI: > 100 µM
CCRF-CEM leukemia
  TGI: > 100 µM
RXF-631 renal
  TGI: > 100 µM
A549 NSCLC
  TGI: > 100 µM
OVCAR-8 ovarian
  TGI: > 100 µM
SK-OV-3 ovarian
  TGI: > 100 µM
SR leukemia
  TGI: > 100 µM
KM12 colon
  TGI: > 100 µM
RPMI-8226 leukemia
  TGI: > 100 µM
IGROV1 ovarian
  TGI: > 100 µM
SK-MEL-2 melanoma
  TGI: > 100 µM
K-562 leukemia
  TGI: > 100 µM
KM20L2 colon
  TGI: > 100 µM
SF-268 CNS
  TGI: > 100 µM
SN12C renal
  TGI: > 100 µM
UACC-62 melanoma
  TGI: > 100 µM
CAKI-1 renal
  TGI: > 100 µM
NCI-H226 lung
  TGI: > 100 µM
DLD-1 colon
  TGI: > 100 µM
TK-10 renal
  TGI: > 100 µM
A498 renal
  TGI: > 100 µM
U251 CNS
  TGI: > 100 µM

## C=CC1[C@H]2COC(C)(C)O[C@@H]2CC(=O)C1(C)C (stereo not given in full)
UACC-257 melanoma
  TGI: > 100 µM
HCT-116 colon
  TGI: > 100 µM
NCI-H522 lung
  TGI: > 100 µM
SF-295 CNS
  TGI: > 100 µM
SW-620 colon
  TGI: > 100 µM
EKVX NSCLC
  TGI: > 100 µM
SF-539 CNS
  TGI: > 100 µM
NCI-H23 lung
  TGI: > 100 µM
SNB-19 CNS
  TGI: > 100 µM
MALME-3M melanoma
  TGI: > 100 µM
DMS 114 small cell lung
  TGI: > 100 µM
OVCAR-5 ovarian
  TGI: > 100 µM
OVCAR-4 ovarian
  TGI: > 100 µM
HCC-2998 colon
  TGI: > 100 µM
HL-60(TB) leukemia
  TGI: > 100 µM
LXFL 529 NSCLC
  TGI: > 100 µM
NCI-H460 lung
  TGI: > 100 µM
HOP-62 NSCLC
  TGI: > 100 µM
M19-MEL melanoma
  TGI: > 100 µM
SK-MEL-28 melanoma
  TGI: > 100 µM
786-0 renal
  TGI: > 100 µM
RXF 393 renal
  TGI: > 100 µM
UO-31 renal
  TGI: > 100 µM
M14 melanoma
  TGI: > 100 µM
HT29 colon
  TGI: > 100 µM
COLO 205 colon
  TGI: > 100 µM
ACHN renal
  TGI: > 100 µM
HOP-18 NSCLC
  TGI: > 100 µM
HOP-92 NSCLC
  TGI: > 100 µM
LOX IMVI melanoma
  TGI: > 100 µM
SNB-75 CNS
  TGI: > 100 µM
A549 NSCLC
  TGI: > 100 µM
OVCAR-8 ovarian
  TGI: > 100 µM
DMS 273 small cell lung
  TGI: > 100 µM
KM12 colon
  TGI: > 100 µM
SK-MEL-2 melanoma
  TGI: > 100 µM
KM20L2 colon
  TGI: > 100 µM
SF-268 CNS
  TGI: > 100 µM
SN12C renal
  TGI: > 100 µM
CAKI-1 renal
  TGI: > 100 µM
NCI-H226 lung
  TGI: > 100 µM
SNB-78 CNS
  TGI: > 100 µM
DLD-1 colon
  TGI: > 100 µM
TK-10 renal
  TGI: > 100 µM
U251 CNS
  TGI: > 100 µM
XF 498 CNS
  TGI: > 100 µM

## O=C(O)COc1ccc(O)c2c1C(=O)CCCC2=O
UACC-257 melanoma
  TGI: > 100 µM
HCT-116 colon
  TGI: > 100 µM
NCI-H522 lung
  TGI: > 100 µM
SF-295 CNS
  TGI: > 100 µM
SW-620 colon
  TGI: > 100 µM
EKVX NSCLC
  TGI: > 100 µM
SF-539 CNS
  TGI: > 100 µM
NCI-H23 lung
  TGI: > 100 µM
SNB-19 CNS
  TGI: > 100 µM
HCT-15 colon
  TGI: > 100 µM
MALME-3M melanoma
  TGI: > 100 µM
DMS 114 small cell lung
  TGI: > 100 µM
OVCAR-5 ovarian
  TGI: > 100 µM
OVCAR-4 ovarian
  TGI: > 100 µM
HCC-2998 colon
  TGI: > 100 µM
HL-60(TB) leukemia
  TGI: > 100 µM
LXFL 529 NSCLC
  TGI: > 100 µM
NCI-H460 lung
  TGI: > 100 µM
HOP-62 NSCLC
  TGI: > 100 µM
M19-MEL melanoma
  TGI: > 100 µM
SK-MEL-28 melanoma
  TGI: > 100 µM
786-0 renal
  TGI: > 100 µM
UO-31 renal
  TGI: > 100 µM
M14 melanoma
  TGI: > 100 µM
HT29 colon
  TGI: > 100 µM
COLO 205 colon
  TGI: > 100 µM
ACHN renal
  TGI: > 100 µM
OVCAR-3 ovarian
  TGI: > 100 µM
SK-MEL-5 melanoma
  TGI: > 100 µM
MOLT-4 leukemia
  TGI: > 100 µM
LOX IMVI melanoma
  TGI: > 100 µM
CCRF-CEM leukemia
  TGI: > 100 µM
RXF-631 renal
  TGI: > 100 µM
A549 NSCLC
  TGI: > 100 µM
OVCAR-8 ovarian
  TGI: > 100 µM
SK-OV-3 ovarian
  TGI: > 100 µM
DMS 273 small cell lung
  TGI: > 100 µM
KM12 colon
  TGI: > 100 µM
RPMI-8226 leukemia
  TGI: > 100 µM
IGROV1 ovarian
  TGI: > 100 µM
SK-MEL-2 melanoma
  TGI: > 100 µM
K-562 leukemia
  TGI: > 100 µM
KM20L2 colon
  TGI: > 100 µM
SF-268 CNS
  TGI: > 100 µM
SN12C renal
  TGI: > 100 µM
UACC-62 melanoma
  TGI: > 100 µM
CAKI-1 renal
  TGI: > 100 µM
SNB-78 CNS
  TGI: > 100 µM
DLD-1 colon
  TGI: > 100 µM
TK-10 renal
  TGI: > 100 µM
A498 renal
  TGI: > 100 µM
U251 CNS
  TGI: > 100 µM
XF 498 CNS
  TGI: > 100 µM
